Experimental data from article PMC11117929, “Benzamide Trimethoprim Derivatives as Human Dihydrofolate Reductase Inhibitors—Molecular Modeling and In Vitro Activity Study” (Biomedicines, 2024).

Legend:
recombinant human DHFR = target: T1, recombinant human DHFR (Homo sapiens, UniProt P00374); test: Dihydrofolate reductase (DHFR) inhibition assay (assay kit); format: biochemical; conditions: mean of three assays ± S.D.
T1 construct: purchased Sigma Aldrich (St. Louis, MO, USA)
T1 sequence (P00374 1-187): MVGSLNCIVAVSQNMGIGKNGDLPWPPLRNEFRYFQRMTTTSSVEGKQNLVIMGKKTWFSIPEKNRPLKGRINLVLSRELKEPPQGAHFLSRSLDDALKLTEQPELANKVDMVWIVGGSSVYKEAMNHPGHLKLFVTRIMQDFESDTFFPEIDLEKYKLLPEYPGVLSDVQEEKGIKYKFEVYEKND
Text: All reagents were purchased from Fluka (Sigma-Aldrich, Poznań, Poland), Merck (Darmstadt, Germany), or Alfa Aesar (Karlsruhe, Germany) and used without further purification. Dichloromethane (DCM) and dimethylformamide (DMF) were stored in 4 Å molecular sieves. The Dihydrofolate Reductase Assay Kit was purchased from Sigma Aldrich (St. Louis, MO, USA).
The inhibition of dihydrofolate reductase by the new TMP analogs, that is, determining their effect on the activity of recombinant human DHFR, was tested according to the instructions provided by the manufacturer and used previously.
In all experiments, the mean values for three assays ± standard deviations (S.D.) were calculated. The results were submitted to statistical analysis using the Student’s t-test. Differences were considered significant at p < 0.05.

various cancer cells = test system: various cancer cells; parameters: method as in PMID 36680987; conditions: cited from earlier work
plasmid DNA = conditions: ethidium bromide displacement, netropsin as standard; cited from earlier work
β-secretase (BACE1) = target: β-secretase (BACE1); parameters: method as in PMID 37834347; conditions: cited from earlier work
[1] = target: acetylcholinesterase (AChE); parameters: method as in PMID 37834347; conditions: cited from earlier work

SMILES | IC50 (recombinant human DHFR) [µM] | other results
COc1cc(OC)cc(C(=O)Nc2cccc(NC(=O)c3cc(OC)cc(OC)c3)c2)c1 [JW2] | 10.15 ± 0.02 | 
COc1ccc(C(=O)Nc2cccc(NC(=O)c3ccc(OC)c(OC)c3)c2)cc1OC [JW3] | 9.83 ± 0.03 | 
COc1cc(CNC(=O)c2cc(OC)c(OC)c(OC)c2)cc(OC)c1OC [MB4] | 20.17 ± 0.03 | antiproliferative activity (various cancer cells): showed antiproliferative activity
COc1cc(Cc2cnc(N)nc2N)cc(OC)c1OC [TMP, trimethoprim] |  | binding to plasmid DNA (plasmid DNA): does not bind to the plasmid
COc1ccc(C(=O)Nc2ccc(NC(=O)c3ccc(OC)cc3)cc2)cc1 [JW8] | 12.15 ± 0.02 | IC50 (β-secretase (BACE1)): 9.01 µM; IC50 [1]: 0.056 µM
COc1cc(C(=O)Nc2cccc(NC(=O)c3cc(OC)c(OC)c(OC)c3)c2)cc(OC)c1OC [JW1] | 8.5 ± 0.06 | 
COc1cc(NC(=O)c2cc(OC)c(OC)c(OC)c2)cc(OC)c1OC [MB3] | 9.17 ± 0.01 | antiproliferative activity (various cancer cells): showed antiproliferative activity
COc1ccc(C(=O)Nc2cccc(NC(=O)c3ccc(OC)cc3)c2)cc1 [JW4] | 15.3 ± 0.04 | 
COc1ccc(C(=O)Nc2ccc(NC(=O)c3ccc(OC)c(OC)c3)cc2)cc1OC [JW7] | 8.13 ± 0.06 | 
COc1cc(C(=O)Nc2ccc(NC(=O)c3cc(OC)c(OC)c(OC)c3)cc2)cc(OC)c1OC [JW5] | 4.8 ± 0.05 | 
COc1cc(C(=O)Nc2cccc([N+](=O)[O-])c2)cc(OC)c1OC [MB1] | 10.16 ± 0.01 | 
COc1cc(OC)cc(C(=O)Nc2ccc(NC(=O)c3cc(OC)cc(OC)c3)cc2)c1 [JW6] | 4.72 ± 0.05 | 
